Experimental data from patent US20110144188A1, “SALTS OF T[…] N-[…] TRIMEBUTINE” (Antibe Therapeutics Inc., priority 2006, published 2011).

Columns and labels:
[1] = tested on: rat model of visceral pain perception; test: Rat model of visceral pain perception (colorectal distension, AWR score and colorectal pressure); assay type: in vivo
Method: A rat model of visceral pain perception, a pre-clinical model of irritable bowel syndrome, was used in the following example. Rats (male, Wistar, 200-250 g, obtained from Charles River, Monza, Italy), were housed in plastic cages and maintained under controlled conditions with 12-hours light/dark cycle with lights on at 7.00 AM. Tap water and standard laboratory chow were freely available. Before experiments, rats were individually trained by spending 2-3 hours per day in a plexiglass cage for 2-3 days. It allowed them to adjust to a movement-restriction environment. Food was withheld for 12 hours before colorectal distension (CRD) recording were performed. Experiments were performed in awake rats and were conducted in a blind manner in that the observer was not aware of the identity of drug administered to each animal.
On the testing day, rats were sedated with ether inhalation and a 2 cm long latex balloon was inserted intrarectally 2 cm from the anal verge and fixed at the base of the tail. The balloon was connected via a double-barreled cannula to a pressure transducer to continuously monitoring the rectal pressure by a computer (PowerLab PC, A.D. Instruments, Milford, Mass., USA) and to a syringe for inflation/deflation of the balloon. The rats were then housed in a small cage (20×8×8 cm) on an elevated Plexiglas™ platform and allowed to wake up and adapt for 1 hour. After recovery from sedation, animals underwent the CRD procedure and behavioral responses were tested. The night before the experiments, the balloons were inflated and left overnight so the latex stretched and the balloons became compliant.
CRD of 20 seconds, performed every 5 minutes, was applied in increment of 0.4 ml starting from 0.4 ml up to 1.6 ml water. To achieve an accurate measurement of the colonic parameters and perception, the distensions were repeated twice for each intensity and data for each animal were averaged for analysis. Each animal underwent a double set of CRD. Twenty minutes after the first sequence of CRD (0.4 mL-1.6 ml water), drugs were administered intraperitoneally (i.p.) and a second set of CRD was performed. Behavioral responses during the first and the second set of CRD were assessed and compared.
Behavioral response to CRD was assessed by measuring the abdominal withdrawal reflex (AWR) using a semi-quantitative score (1).
The effects of trimebutine maleate, nitroarginine and trimebutine nitroargininate on colonic compliance and sensitivity were determined using a total of 15 fasting rats. […]
To determine the effect of trimebutine maleate, nitroarginine and trimebutine nitroargininate on colonic smooth muscle, the compliance of the colo-rectum during CRD was obtained from intracolo-rectal volume and pressure and expressed as mL/mmHg. […]

[2] = tested on: abdominal pain in patients with functional bowel disorders; settings: especially IBS, 300 to 600 mg/day; cited from earlier work

For NC(=S)c1ccc(C(=O)O)cc1, the melting point was 296 to 298 °C (dec.).
In the case of CCC(COC(=O)c1cc(OC)c(OC)c(OC)c1)(c1ccccc1)N(C)C.NC(=S)c1ccc(C(=O)O)cc1 (stereo not drawn) [trimebutine thiocarbamoylbenzoate, 3,4,5-trimethoxybenzoic acid 2-(dimethylamino)-2-phenylbutyl ester 4-thiocarbamoyl benzoate], the “reducing visceral pain in response to colorectal distension (AWR score)” value ([1]; rats, dose equimolar to trimebutine maleate 10 mg/kg, vs trimebutine maleate and thiocarbamoylbenzoate alone, FIGS. 5(a), 5(b)) is reported as “more effective than either trimebutine maleate or thiocarbamoylbenzoate”.
For CCC(COC(=O)c1cc(OC)c(OC)c(OC)c1)(c1ccccc1)N(C)C (stereo not drawn) [Trimebutine, 3,4,5-trimethoxybenzoic acid 2-(dimethylamino)-2-phenylbutylester], the “treatment of abdominal pain in patients” value [2] is listed as “effective in the treatment of both acute and chronic abdominal pain”.
With CCC(COC(=O)c1cc(OC)c(OC)c(OC)c1)(c1ccccc1)N(C)C.N=C(NCCC[C@H](N)C(=O)O)N[N+](=O)[O-] (stereo not drawn) [trimebutine nitroargininate] the “reducing visceral pain in response to colorectal distension (AWR score)” value ([1]; Wistar rats, 16 mg/kg i.p., vs trimebutine maleate 10 mg/kg i.p. and nitroarginine 6 mg/kg, FIGS. 1(a), 2(a), 3(a)) was “more effective than either trimebutine maleate or nitroarginine”, the “visceral analgesic effects (AWR score) after pretreatment with L-NAME” value ([1]; rats, 16 mg/kg i.p., L-NAME 25 mg/kg i.v. 10 min before, FIG. 4(a)) was “largely abolished” and the “visceral analgesic effects (AWR score) after pretreatment with methylene blue” value ([1]; rats, 16 mg/kg i.p., methylene blue 1 mg/kg i.p. 10 min before, FIG. 4(b)) was “largely abolished”.
